Data from ChEMBL document CHEMBL6153094, “Rationally designed highly amphipathic antimicrobial peptides demonstrating superior bacterial selectivity relative to the corresponding α-helix peptide” (Eur J Med Chem, 2025).
In brackets after ≈: the same amount, converted by molar mass.

Experiments:
Assay type in all cases: functional
Enterococcus faecalis = assay: Antimicrobial activity against Enterococcus faecalis ATCC 29212 assessed as inhibition of visible bacterial growth incubated for 18 hrs by broth-dilution method
Staphylococcus aureus [1] = assay: Antimicrobial activity against gentamicin-resistant Staphylococcus aureus ATCC 25923 assessed as inhibition of visible bacterial growth incubated for 18 hrs by broth-dilution method
[2] = tested on: Staphylococcus epidermidis; assay: Antimicrobial activity against Staphylococcus epidermidis ATCC 12228 assessed as inhibition of visible bacterial growth incubated for 18 hrs by broth-dilution method
Pseudomonas aeruginosa [3] = assay: Antimicrobial activity against gentamicin-resistant Pseudomonas aeruginosa ATCC 27853 assessed as inhibition of visible bacterial growth incubated for 18 hrs by broth microdilution method
Staphylococcus aureus [4] = assay: Antimicrobial activity against Staphylococcus aureus ATCC 25923 assessed as inhibition of visible bacterial growth incubated for 18 hrs by broth-dilution method
Bacillus subtilis = assay: Antimicrobial activity against Bacillus subtilis ATCC 23857 assessed as inhibition of visible bacterial growth incubated for 18 hrs by broth microdilution method
Pseudomonas aeruginosa [5] = assay: Resistance fold, ratio of MIC for Pseudomonas aeruginosa ATCC 27853 measured after 10th passage to MIC for Pseudomonas aeruginosa ATCC 27853 measured immediately
Staphylococcus aureus [6] = assay: Resistance fold, ratio of MIC for Staphylococcus aureus ATCC 25923 measured after 8th passage to MIC for Staphylococcus aureus ATCC 25923 measured immediately
Acinetobacter baumannii = assay: Antimicrobial activity against Acinetobacter baumannii ATCC 19606 assessed as inhibition of visible bacterial growth incubated for 18 hrs by broth microdilution method
Pseudomonas aeruginosa [7] = assay: Antimicrobial activity against Pseudomonas aeruginosa ATCC 27853 assessed as inhibition of visible bacterial growth incubated for 18 hrs by broth microdilution method
Klebsiella pneumoniae = assay: Antimicrobial activity against Klebsiella pneumoniae ATCC 700603 assessed as inhibition of visible bacterial growth incubated for 18 hrs by broth microdilution method
Escherichia coli = assay: Antimicrobial activity against Escherichia coli ATCC 25922 assessed as inhibition of visible bacterial growth incubated for 18 hrs by broth microdilution method

## CN[C@@H]1[C@@H](O)[C@@H](O[C@@H]2[C@@H](O)[C@H](O[C@H]3O[C@H]([C@@H](C)NC)CC[C@H]3N)[C@@H](N)C[C@H]2N)OC[C@]1(C)O [GENTAMICIN C1]
Enterococcus faecalis
  MIC: 16 µM (≈ 7.64 µg/mL)
Staphylococcus aureus [1]
  MIC: 32 µM (≈ 15.3 µg/mL)
[2]
  MIC: < 1 µM
Pseudomonas aeruginosa [3]
  MIC: 64 µM (≈ 30.6 µg/mL)
Staphylococcus aureus [4]
  MIC: < 1 µM
Bacillus subtilis
  MIC: < 1 µM
Pseudomonas aeruginosa [5]
  fold change (FC): 32
Staphylococcus aureus [6]
  fold change (FC): 32
Acinetobacter baumannii
  MIC: 16 µM (≈ 7.64 µg/mL)
Pseudomonas aeruginosa [7]
  MIC: < 1 µM
Klebsiella pneumoniae
  MIC: 16 µM (≈ 7.64 µg/mL)
Escherichia coli
  MIC: 2 µM (≈ 0.955 µg/mL)
